Data reported in BindingDB's records for patent US20240109865 (Tyra Biosciences, 2024).

Legend:
Assay in all cases: Kinase Assay
[1] = biological target: Fibroblast growth factor receptor 2 (Homo sapiens, UniProt P21802)
Method: (§1) Kinase-tagged T7 phage strains were prepared in an E. coli host derived from the BL21 strain. E. coli were grown to log-phase and infected with T7 phage and incubated with shaking at 32° C. until lysis. The lysates were centrifuged and filtered to remove cell debris. […] The liganded beads were blocked with excess biotin and washed with blocking buffer SeaBlock (Pierce), […], 1 mM DTT to remove unbound ligand and to reduce non-specific binding. […] Kds were determined using an 11-point 3-fold compound dilution series with three DMSO control points. […] The compounds were then diluted directly into the assays such that the final concentration of DMSO was 0.9%. All reactions performed in polypropylene 384-well plate. Each was a final volume of 0.02 ml.

[2] = biological target: Fibroblast growth factor receptor 1 (Homo sapiens, UniProt P11362)
Method: as §1

[3] = biological target: Fibroblast growth factor receptor 4 (Homo sapiens, UniProt P22455)
Method: as §1

Sequence of Fibroblast growth factor receptor 1 (P11362 whole entry): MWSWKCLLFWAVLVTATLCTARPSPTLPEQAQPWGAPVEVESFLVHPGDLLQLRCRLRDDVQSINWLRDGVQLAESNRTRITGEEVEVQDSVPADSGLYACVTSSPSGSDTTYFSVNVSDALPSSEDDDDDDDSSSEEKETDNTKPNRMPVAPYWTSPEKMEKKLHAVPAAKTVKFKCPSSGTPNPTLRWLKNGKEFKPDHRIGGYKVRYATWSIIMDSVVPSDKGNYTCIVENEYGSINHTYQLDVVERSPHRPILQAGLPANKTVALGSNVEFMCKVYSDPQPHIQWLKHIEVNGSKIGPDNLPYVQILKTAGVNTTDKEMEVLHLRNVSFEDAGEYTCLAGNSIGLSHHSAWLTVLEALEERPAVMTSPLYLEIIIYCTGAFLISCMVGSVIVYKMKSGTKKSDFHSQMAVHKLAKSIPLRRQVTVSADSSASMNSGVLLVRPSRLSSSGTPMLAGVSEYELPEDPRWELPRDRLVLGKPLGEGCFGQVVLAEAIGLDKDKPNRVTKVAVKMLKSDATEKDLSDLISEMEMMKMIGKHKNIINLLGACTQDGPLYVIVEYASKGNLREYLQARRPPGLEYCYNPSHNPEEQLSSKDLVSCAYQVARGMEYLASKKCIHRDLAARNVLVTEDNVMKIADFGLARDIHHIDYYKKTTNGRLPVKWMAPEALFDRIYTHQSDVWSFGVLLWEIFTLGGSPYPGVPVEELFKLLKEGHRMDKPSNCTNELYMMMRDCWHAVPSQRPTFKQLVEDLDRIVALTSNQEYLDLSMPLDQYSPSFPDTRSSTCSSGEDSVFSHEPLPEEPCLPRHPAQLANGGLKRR
Sequence of Fibroblast growth factor receptor 4 (P22455 whole entry): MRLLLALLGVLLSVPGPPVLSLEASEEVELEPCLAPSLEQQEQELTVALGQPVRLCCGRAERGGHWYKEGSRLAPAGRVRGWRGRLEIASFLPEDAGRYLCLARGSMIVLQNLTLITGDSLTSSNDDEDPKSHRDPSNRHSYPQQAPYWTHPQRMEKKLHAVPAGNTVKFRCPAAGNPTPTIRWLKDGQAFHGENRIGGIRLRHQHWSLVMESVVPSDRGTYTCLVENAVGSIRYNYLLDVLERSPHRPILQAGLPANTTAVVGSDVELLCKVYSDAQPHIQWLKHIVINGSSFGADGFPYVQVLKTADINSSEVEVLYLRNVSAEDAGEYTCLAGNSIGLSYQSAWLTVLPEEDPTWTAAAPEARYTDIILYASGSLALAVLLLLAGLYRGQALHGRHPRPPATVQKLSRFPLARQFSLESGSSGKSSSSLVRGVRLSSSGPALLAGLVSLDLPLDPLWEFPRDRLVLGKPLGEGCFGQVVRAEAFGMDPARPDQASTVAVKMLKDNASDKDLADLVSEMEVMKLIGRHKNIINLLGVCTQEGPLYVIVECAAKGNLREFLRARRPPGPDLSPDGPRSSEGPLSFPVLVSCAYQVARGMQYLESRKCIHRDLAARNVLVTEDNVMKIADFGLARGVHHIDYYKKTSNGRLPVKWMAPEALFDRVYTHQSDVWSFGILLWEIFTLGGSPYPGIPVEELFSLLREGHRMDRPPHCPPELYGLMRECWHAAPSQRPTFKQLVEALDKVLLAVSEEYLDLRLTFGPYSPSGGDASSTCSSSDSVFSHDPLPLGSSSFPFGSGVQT
Sequence of Fibroblast growth factor receptor 2 (P21802 whole entry): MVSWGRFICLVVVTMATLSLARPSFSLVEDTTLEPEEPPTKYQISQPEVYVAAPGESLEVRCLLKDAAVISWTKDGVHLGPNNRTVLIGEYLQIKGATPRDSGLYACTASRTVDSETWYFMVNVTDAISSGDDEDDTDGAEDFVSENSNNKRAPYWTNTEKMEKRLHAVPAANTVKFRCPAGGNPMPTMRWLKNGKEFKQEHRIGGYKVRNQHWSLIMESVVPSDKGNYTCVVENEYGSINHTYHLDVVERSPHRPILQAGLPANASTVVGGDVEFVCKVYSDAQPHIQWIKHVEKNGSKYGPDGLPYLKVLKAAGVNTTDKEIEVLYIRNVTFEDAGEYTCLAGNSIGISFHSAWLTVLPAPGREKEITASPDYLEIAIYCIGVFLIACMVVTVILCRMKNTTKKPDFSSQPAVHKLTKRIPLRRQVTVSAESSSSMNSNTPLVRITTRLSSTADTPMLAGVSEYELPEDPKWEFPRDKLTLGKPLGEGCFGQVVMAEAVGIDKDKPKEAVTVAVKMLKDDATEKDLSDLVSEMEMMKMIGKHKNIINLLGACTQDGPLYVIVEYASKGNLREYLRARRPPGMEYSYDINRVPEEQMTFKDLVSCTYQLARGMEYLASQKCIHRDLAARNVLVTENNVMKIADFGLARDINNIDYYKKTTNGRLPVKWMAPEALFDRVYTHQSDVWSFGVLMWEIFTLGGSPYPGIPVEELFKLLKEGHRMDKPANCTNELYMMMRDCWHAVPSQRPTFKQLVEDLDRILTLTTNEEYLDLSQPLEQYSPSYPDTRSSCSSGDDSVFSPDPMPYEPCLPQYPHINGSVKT

Kd [1] [nM] | Kd [2] [nM] | Kd [3] [nM] | Structure (SMILES)
> 300 | – | – | Cc1cnnc(C)c1[C@@H](C)Oc1ccc2[nH]nc(-c3cnc(N4CCCC4)c(C#N)c3)c2c1 [US20240109865, Example 173.]
– | > 300 | > 300 | C[C@@H](Oc1ccc2[nH]nc(-c3ccc(N4CC5(CCOC5)C4)nc3)c2c1)c1c(Cl)cnnc1Cl [US20240109865, Example 223.]
